According to US11154548B2, “Monosubstituted or polysubstituted amphiphilic hypocrellin derivative, and preparation method and application thereof” (Technical Institute of Physics and Chemistry of the Chinese …, priority 2015, dated 2021):
“Also recorded” adds a separate entry of the source.

Experiments:
Format in all cases: cell-based
Hela cells [1] = test: Phototoxicity experiment, 808 nm laser, MTT assay; settings: 300 nM, 20 mW/cm^2, 20 min, FIG. 18b
Hela cells [2] = test: Phototoxicity experiment, 671 nm laser, MTT assay; settings: 200 nM, 50 mW/cm^2, 20 min, FIG. 16b
Description: Phototoxicity experiment: Hela cells were incubated together with different concentrations of the compound I-1, the HB and the Ce6 respectively, further incubated in an incubator with a 5% CO2 environment at 37° C. for another 1 hour. After laser irradiation with a power density of 50 mW/cm^2 at a wavelength of 671 nm for 20 min, the Hela cells were further cultured and incubated in an incubator with a 5% CO2 environment at 37° C. for another 24 h. The survival rate of cells in each group was detected by MTT assay.

Hela cells [3] = test: Cell phototoxicity experiment, 635 nm laser, MTT assay; settings: for Hela cells killed: 160 nM, exposed to red light (635 nm, 20 mW/cm^2, 1000 S), FIG. 10b
Description: (§1) Cultured Hela cells were digested and percussed with 0.25% trypsin, made into a single cell suspension, adjusted to a cell count of about 2×10^4/mL, inoculated into a 96-well culture plate with 200 uL/well, and cultured in an incubator with a 5% CO2 environment at 37° C. After cells were adherent, the supernatant culture solution was discarded, different concentrations of photosensitizers (hematoporphyrin derivative HpD, HB, and hypocrellin derivative HB-1) were added strictly in dark according to the experiment design, and further incubated in an incubator with a 5% CO2 environment at 37° C. for another 1 h. Then the 96-well culture plate was perpendicularly irradiated with uniform semiconductor laser beam at a wavelength of 635 nm with the power density adjusted to 20 mW/cm^2 for 1000 S. At the same time, a blank group was arranged for each 96-well culture plate, and 6 wells were arranged for each condition. After irradiation, the culture plate was further incubated in an incubator with a 5% CO2 environment at 37° C. for another 24 h, and then the cell survival rate was detected. The survival rate of cells was detected by MTT assay. 20 uL of MTT (prepared with PBS, concentration: 5 mg/mL) was added to each well, and further incubated in an incubator with a 5% CO2 environment at 37° C. for another 4 h. Then the incubation was terminated. The supernatant was carefully pipetted from the wells and discarded, and then 150 uL of dimethyl sulfoxide (DMSO) was added to each well. The violet crystal was fully dissolved by vibration with a microvibrator for 10 min. The optical density value (OD value) of each well was detected by an ELIASA at 570 nm wavelength to calculate the cell survival rate according to the following formula: cell survival rate=OD value of the experimental group/OD value of the blank group×100%.

Hela cells [4] = test: Dark cytotoxicity experiment, MTT assay; settings: in dark
Description: as §1, with “and further incubated in an incubator with a 5% CO2 environment at 37° C. for another 1 h. Then the 96-well culture plate was perpendicularly irradiated with uniform semiconductor laser beam at a wavelength of 635 nm with the power density adjusted to 20 mW/cm^2 for 1000 S. At the same time, a blank group was arranged for each 96-well culture plate, and 6 wells were arranged for each condition. After irradiation, the culture plate was further incubated in an incubator with a 5% CO2 environment at 37° C. for another 24 h, and then the cell survival rate was detected.” left out

Hela cells [5] = test: Dark toxicity experiment of polysubstituted derivatives, MTT assay; settings: in dark; for cytotoxicity (dark toxicity): Hela cells, FIG. 16a / FIG. 18a
Description: Dark toxicity experiment: Hela cells at a certain concentration were inoculated into a 96-well plate, and cultured for 12-24 h. […] […] The survival rate of cells in each group was detected by MTT assay.
Dark toxicity experiment: Hela cells at a certain concentration were inoculated into a 96-well plate, and cultured for 12-24 h. […] […] The survival rate of cells in each group was detected by MTT assay. […] After laser irradiation with a power density of 20 mW/cm^2 at a wavelength of 808 nm for 20 min, the Hela cells were further cultured and incubated in an incubator with a 5% CO2 environment at 37° C. for another 24 h. The survival rate of cells in each group was detected by MTT assay.

| Compound | Hela cells killed (Hela cells [2]) | Hela cells killed (Hela cells [3]) | cytotoxicity (dark toxicity) (Hela cells [5]) | also measured |
| --- | --- | --- | --- | --- |
| C=Cc1c(C)c2cc3nc(c(CC(=O)O)c4[nH]c(cc5nc(cc1[nH]2)C(C)=C5CC)c(C)c4C(=O)O)[C@@H](CCC(=O)O)[C@@H]3C [Ce6, dihydroporphin Ce6, reference compound] | about 30% | – | – | Hela cells killed (Hela cells [1]): about 20% |
| COc1c(O)c2c(=O)cc(OC)c3c4c(OC)cc(=O)c5c(O)c(NCCOCCO)c6c(c(c1C(/C(C)=N/CCOCCO)C(C)=C6)c23)c54 (stereo not drawn) [HB-1] | – | more than 90% | – | death of Hela cells after incubation with the photosensitizer (Hela cells [4]; 10 uM, half an hour): significant death of the Hela cells are not seen; cytotoxicity (dark toxicity) (Hela cells [4]; Hela cells, FIG. 10a / FIG. 11a): low cytotoxicity |
| CCCCNc1c(O)c2c3c(c(OC)c4c5c6c(c(O)c(OC)c7c6c(c1C=C(C)C7C(C)=O)c42)C(=O)C=C5OC)SCCN=3 (stereo not drawn) [I-1] | more than 90% | – | very low cytotoxicity; also recorded: low cytotoxicity | death of Hela cells after incubation with the photosensitizer (Hela cells [5]; 10 uM, half an hour): significant death of the Hela cells are not seen |
| COC1=CC(=O)c2c(O)c(OC)c3c4c2c1c1c(OC)c2c(c5c6c(c(c4c15)C=C(C)C3C(C)=O)NCCN6)=NC(C(=O)O)CS2 (stereo not drawn) [II-2] | – | – | very low cytotoxicity | – |
| hematoporphyrin derivative [HpD] | – | about 20% | – | – |
| hypocrellin B [HB] | – | about 20% | – | phototoxicity / photodynamic effect, in words (Hela cells [3]; Hela cells, compared with HB and HpD, FIG. 10-14): much poorer ability to photodynamically kill tumor cells |
